Key:
[1] = target: T1, IKACh (Kir3.1 and Kir3.4 protein channels) (Homo sapiens, UniProt P48544+P48549); assay: Patch clamp block of IKACh current in transfected HEK 293 cells; format: cell-based; details: for percentage block of IKACh current (outward component): 1 μM drug, HEK 293 cells transfected with Kir3.1/Kir3.4, barium sensitive current, 5 minute superfusion; for percentage block of IKACh current (FIG. 5, Compound A experiments): same manner and cell lines, concentration not given
T1 construct: expressed in transfected cells; host or cells: HEK 293 (human embryonic kidney cells)
T1 sequence (P48549 1-501): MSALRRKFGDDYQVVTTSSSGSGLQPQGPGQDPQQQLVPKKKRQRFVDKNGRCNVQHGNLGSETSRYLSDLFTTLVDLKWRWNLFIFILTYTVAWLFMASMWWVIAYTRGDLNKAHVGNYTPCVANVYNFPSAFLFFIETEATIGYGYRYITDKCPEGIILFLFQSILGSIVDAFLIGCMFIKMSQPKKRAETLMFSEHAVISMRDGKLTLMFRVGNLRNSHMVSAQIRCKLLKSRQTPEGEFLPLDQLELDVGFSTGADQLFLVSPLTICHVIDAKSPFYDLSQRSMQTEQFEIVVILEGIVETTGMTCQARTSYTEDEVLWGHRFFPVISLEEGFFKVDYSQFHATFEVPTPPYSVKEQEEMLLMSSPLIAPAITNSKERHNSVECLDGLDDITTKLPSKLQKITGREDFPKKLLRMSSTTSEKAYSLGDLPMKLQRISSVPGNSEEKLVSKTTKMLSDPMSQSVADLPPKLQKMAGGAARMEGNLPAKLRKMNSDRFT
T1 sequence (P48544 1-419): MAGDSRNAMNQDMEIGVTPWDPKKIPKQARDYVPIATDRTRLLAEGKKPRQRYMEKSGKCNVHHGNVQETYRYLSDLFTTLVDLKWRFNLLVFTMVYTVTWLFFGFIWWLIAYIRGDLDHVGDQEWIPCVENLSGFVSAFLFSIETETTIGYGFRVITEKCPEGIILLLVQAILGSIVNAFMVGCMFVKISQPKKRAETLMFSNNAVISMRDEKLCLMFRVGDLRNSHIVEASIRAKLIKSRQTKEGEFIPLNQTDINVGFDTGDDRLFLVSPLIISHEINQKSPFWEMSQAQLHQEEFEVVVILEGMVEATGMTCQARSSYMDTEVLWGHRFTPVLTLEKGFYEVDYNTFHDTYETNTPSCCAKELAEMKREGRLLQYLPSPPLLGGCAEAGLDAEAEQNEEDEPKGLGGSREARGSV
Method: FIG. 1: In patch clamp experiments, IKACh was measured in human embryonic kidney cells (HEK 293) transfected with IKACh.
The boxed area is the physiologically important outward component of the IKACh current. A magnification is shown. […] The traces are the barium sensitive currents.

[2] = target: IKr (hERG protein channel) (Homo sapiens, UniProt Q12809); details: 5 min
Method: FIG. 2: IKr current was measured in Chinese hamster ovary cells (CHO) expressing the current.
The arrow denotes the tail current. Tail current is elicited by 3 second step voltage drop from +20 mV to −40 mV. The gray trace is the remaining current after total current block with E4031.
We used the conventional patch clamp method and human embryonic kidney cells transfected with Kir3.1 and Kir3.4 protein channels responsible for IKACh, or Chinese hamster ovary cells transfected with the hERG protein channel responsible for IKr. […] In order to elicit IKACh, the cells were subjected to a voltage protocol consisting of a 2 second ramp from −130 mV to 50 mV, from a holding potential of −40 mV. IKr tail current was elicited by a 3 second voltage drop step from 20 mV to −40 mV. The drugs were superfused over a 5 minute period into the chambers that hold the cells.

[3] = Compound A vs racemic chloroquine

Sequence of IKr (hERG protein channel) (Q12809 whole entry): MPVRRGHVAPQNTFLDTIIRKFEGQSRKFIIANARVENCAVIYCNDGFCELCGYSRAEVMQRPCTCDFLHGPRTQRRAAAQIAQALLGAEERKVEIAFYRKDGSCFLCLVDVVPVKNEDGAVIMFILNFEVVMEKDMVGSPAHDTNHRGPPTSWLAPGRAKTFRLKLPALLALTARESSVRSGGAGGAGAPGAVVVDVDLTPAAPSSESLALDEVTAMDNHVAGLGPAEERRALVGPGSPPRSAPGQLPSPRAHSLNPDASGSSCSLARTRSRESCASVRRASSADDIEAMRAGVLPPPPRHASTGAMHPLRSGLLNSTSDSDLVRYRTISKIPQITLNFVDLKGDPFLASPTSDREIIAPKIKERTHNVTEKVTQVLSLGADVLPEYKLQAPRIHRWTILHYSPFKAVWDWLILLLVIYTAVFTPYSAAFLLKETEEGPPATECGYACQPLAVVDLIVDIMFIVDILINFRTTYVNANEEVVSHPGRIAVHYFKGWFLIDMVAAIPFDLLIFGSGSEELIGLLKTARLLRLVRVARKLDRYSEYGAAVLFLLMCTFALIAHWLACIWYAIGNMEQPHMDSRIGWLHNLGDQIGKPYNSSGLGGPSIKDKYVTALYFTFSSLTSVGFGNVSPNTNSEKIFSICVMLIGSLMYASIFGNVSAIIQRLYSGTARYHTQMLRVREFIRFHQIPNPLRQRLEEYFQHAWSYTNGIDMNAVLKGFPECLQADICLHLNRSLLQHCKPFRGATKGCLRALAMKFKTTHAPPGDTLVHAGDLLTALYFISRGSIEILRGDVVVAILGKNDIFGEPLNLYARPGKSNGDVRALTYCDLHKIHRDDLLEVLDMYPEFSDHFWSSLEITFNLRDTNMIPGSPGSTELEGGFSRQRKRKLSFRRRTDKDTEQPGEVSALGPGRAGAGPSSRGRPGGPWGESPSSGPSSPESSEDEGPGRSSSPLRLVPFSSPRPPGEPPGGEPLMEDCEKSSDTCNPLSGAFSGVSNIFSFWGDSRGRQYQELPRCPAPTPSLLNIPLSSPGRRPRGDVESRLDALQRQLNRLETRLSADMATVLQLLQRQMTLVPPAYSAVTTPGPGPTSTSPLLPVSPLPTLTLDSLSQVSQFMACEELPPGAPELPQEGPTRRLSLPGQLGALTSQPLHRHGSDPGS

Row | Compound | percentage block of IKACh current (outward component) [1] | percentage block of IKACh current (FIG. 5, Compound A experiments) [1, 3] | also measured
1 | CCN(CC)CCC[C@@H](C)Nc1ccnc2cc(Cl)ccc12 [(R)-chloroquine, reference compound] | less than 13% | – | percentage block of IKACh current (outward component) ([1]; listed as distomer (R)): 14%±9
2 | CCN(CC)CCC[C@H](C)Nc1ccnc2cc(Cl)ccc12 [(S)-chloroquine] | more than 83% | – | percentage block of IKACh current (outward component) ([1]; listed as eutomer (S)): 83%±2
3 | CCN(CC)CCC[C@H](Cc1ccccc1)Nc1ccnc2cc(Cl)ccc12 [Compound A] | – | 110%±2.5 | IKACh block relative to chloroquine, in words [1, 3]: significantly better blocker of IKACh; percentage block of IKr current (FIG. 5, Compound A experiments) [2]: 75%±5.7
4 | chloroquine [racemic chloroquine, reference compound] | – | 52%±11 | –
